Measured values as given in ChEMBL document CHEMBL5137054, “Xyloketal B Reverses Nutritional Hepatic Steatosis, Steatohepatitis, and Liver Fibrosis through Activation of the PPARα/PGC1α Signaling Pathway” (J Nat Prod, 2022).
The source made the active and inactive calls. The calls are words filed in the database; no cut-off is given here.

What was measured:
[1] = Toxicity in C57BL/6J mouse assessed as effect on serum glucose level at 40 mg/kg, ip; assay type: organism-based; conditions: in vivo
[2] = Toxicity in C57BL/6J mouse assessed as effect on serum triglyceride level at 40 mg/kg, ip; assay type: organism-based; conditions: in vivo
Mus musculus [3] = assay: Anti-inflammatory activity against MCD-induced C57BL/6J mouse model of nonalcoholic steatohepatitis assessed as downregulation of TNFalpha expression in liver at 20 to 40 mg/kg/day, ip administered from week 3 to week 4 by immunoblotting analysis; assay type: functional, organism-based; conditions: dose 20-40 mg/kg/day, time 2.0 weeks
Mus musculus [4] = assay: Upregulation of Cyp4a10 gene transcriptional level in HFD-induced C57BL/6J mouse model of NAFL at 20 to 40 mg/kg/day, ip administered from week 7 to week 12 by qRT-PCR analysis; assay type: functional, organism-based; conditions: dose 20-40 mg/kg/day, time 6.0 weeks
Mus musculus [5] = assay: Upregulation of peroxisomal bifunctional enzyme expression in liver of HFD-induced C57BL/6J mouse model of NAFL at 15 mg/kg/day, ip administered from week 7 to week 12 by immunoblotting analysis; assay type: functional, organism-based; conditions: time 6.0 weeks
Mus musculus [6] = assay: Reduction in hepatic steatosis in HFD-induced C57BL/6J mouse model of NAFL assessed as reduction in serum AST level at 20 to 40 mg/kg/day, ip administered from week 7 to week 12; assay type: functional, organism-based; conditions: dose 20-40 mg/kg/day, time 6.0 weeks
Mus musculus [7] = assay: Upregulation of peroxisomal acyl-coenzyme A oxidase-1 enzyme expression in liver of HFD-induced C57BL/6J mouse model of NAFL at 15 mg/kg/day, ip administered from week 7 to week 12 by immunoblotting analysis; assay type: functional, organism-based; conditions: time 6.0 weeks
[8] = Toxicity in C57BL/6J mouse assessed as effect on serum ALT level at 40 mg/kg, ip; assay type: organism-based; conditions: in vivo
[9] = Toxicity in C57BL/6J mouse assessed as effect on serum LDL level at 40 mg/kg, ip; assay type: organism-based; conditions: in vivo
Mus musculus [10] = assay: Reduction in hepatic steatosis in HFD-induced C57BL/6J mouse model of NAFL assessed as reduction in HFD-induced relative liver weight at 20 to 40 mg/kg/day, ip administered from week 7 to week 12; assay type: functional, organism-based; conditions: dose 20-40 mg/kg/day, time 6.0 weeks
Mus musculus [11] = assay: Upregulation of Cpt1b gene transcriptional level in HFD-induced C57BL/6J mouse model of NAFL at 20 to 40 mg/kg/day, ip administered from week 7 to week 12 by qRT-PCR analysis; assay type: functional, organism-based; conditions: dose 20-40 mg/kg/day, time 6.0 weeks
Mus musculus [12] = assay: Reduction in hepatic steatosis in HFD-induced C57BL/6J mouse model of NAFL assessed as reduction in serum LDL level at 20 to 40 mg/kg/day, ip administered from week 7 to week 12; assay type: functional, organism-based; conditions: dose 20-40 mg/kg/day, time 6.0 weeks
[13] = Toxicity in C57BL/6J mouse assessed as effect on relative liver weight at 40 mg/kg, ip; assay type: organism-based; conditions: in vivo
Mus musculus [14] = assay: Antifibrotic activity against MCD-induced C57BL/6J mouse model of liver fibrosis assessed as reduction in collagen III level in liver at 20 to 40 mg/kg, ip administered from week 3 to week 6 by sirius red staining based light microscopic analysis; assay type: functional, organism-based; conditions: dose 20-40 mg/kg, time 4.0 weeks
Mus musculus [15] = assay: Upregulation of carnitine O-palmitoyltransferase-1B enzyme expression in liver of HFD-induced C57BL/6J mouse model of NAFL at 15 mg/kg/day, ip administered from week 7 to week 12 by immunoblotting analysis; assay type: functional, organism-based; conditions: time 6.0 weeks
[16] = Toxicity in C57BL/6J mouse assessed as effect on serum ApoE level at 40 mg/kg, ip; assay type: organism-based; conditions: in vivo
Mus musculus [17] = assay: Upregulation of Medium-chain specific acyl-CoA dehydrogenase gene transcriptional level in HFD-induced C57BL/6J mouse model of NAFL at 20 to 40 mg/kg/day, ip administered from week 7 to week 12 by qRT-PCR analysis; assay type: functional, organism-based; conditions: dose 20-40 mg/kg/day, time 6.0 weeks
Mus musculus [18] = assay: Upregulation of carnitine O-palmitoyltransferase-1B enzyme expression in liver of HFD-induced C57BL/6J mouse model of NAFL administered intraperitoneally from week 7 to week 12 by immunoblotting analysis; assay type: functional; conditions: dose 20-40 mg/kg/day, route ip, time 6.0 weeks, DDE = dose-dependent effect
Mus musculus [19] = assay: Anti-inflammatory activity against MCD-induced C57BL/6J mouse model of nonalcoholic steatohepatitis assessed as attenuation of ICAM1 expression in liver at 20 to 40 mg/kg/day, ip administered from week 3 to week 4 by immunoblotting analysis; assay type: functional, organism-based; conditions: dose 20-40 mg/kg/day, time 2.0 weeks
Mus musculus [20] = assay: Antifibrotic activity against MCD-induced C57BL/6J mouse model of liver fibrosis assessed as reduction in number of collagenous fibers in liver at 20 to 40 mg/kg, ip administered from week 3 to week 6 by masson's trichrome staining based light microscopic analysis; assay type: functional, organism-based; conditions: dose 20-40 mg/kg, time 4.0 weeks
Mus musculus [21] = assay: Antifibrotic activity against MCD-induced C57BL/6J mouse model of liver fibrosis assessed as reduction in collagen I level in liver at 20 to 40 mg/kg, ip administered from week 3 to week 6 by sirius red staining based light microscopic analysis; assay type: functional, organism-based; conditions: dose 20-40 mg/kg, time 4.0 weeks
Mus musculus [22] = assay: Reduction in hepatic steatosis in HFD-induced C57BL/6J mouse model of NAFL assessed as increase in serum ApoE level at 20 to 40 mg/kg/day, ip administered from week 7 to week 12; assay type: functional, organism-based; conditions: dose 20-40 mg/kg/day, time 6.0 weeks
Mus musculus [23] = assay: Upregulation of Cyp4a14 gene transcriptional level in HFD-induced C57BL/6J mouse model of NAFL at 20 to 40 mg/kg/day, ip administered from week 7 to week 12 by qRT-PCR analysis; assay type: functional, organism-based; conditions: dose 20-40 mg/kg/day, time 6.0 weeks
Mus musculus [24] = assay: Upregulation of Cpt1a gene transcriptional level in HFD-induced C57BL/6J mouse model of NAFL at 20 to 40 mg/kg/day, ip administered from week 7 to week 12 by qRT-PCR analysis; assay type: functional, organism-based; conditions: dose 20-40 mg/kg/day, time 6.0 weeks
Mus musculus [25] = assay: Anti-inflammatory activity against MCD-induced C57BL/6J mouse model of nonalcoholic steatohepatitis assessed as downregulation of COX-2 expression in liver at 20 to 40 mg/kg/day, ip administered from week 3 to week 4 by immunoblotting analysis; assay type: functional, organism-based; conditions: dose 20-40 mg/kg/day, time 2.0 weeks
[26] = Toxicity in C57BL/6J mouse assessed as effect on serum AST level at 40 mg/kg, ip; assay type: organism-based; conditions: in vivo
Mus musculus [27] = assay: Antifibrotic activity against MCD-induced C57BL/6J mouse model of liver fibrosis assessed as reduction in MMP2 level in liver administered intraperitoneally from week 3 to week 6 by immunoblotting analysis; assay type: functional, organism-based; conditions: dose 20-40 mg/kg, route ip, time 4.0 weeks, DDE = dose-dependent effect
Mus musculus [28] = assay: Upregulation of peroxisomal bifunctional enzyme gene transcriptional level in HFD-induced C57BL/6J mouse model of NAFL at 20 to 40 mg/kg/day, ip administered from week 7 to week 12 by qRT-PCR analysis; assay type: functional, organism-based; conditions: dose 20-40 mg/kg/day, time 6.0 weeks
[29] = Toxicity in C57BL/6J mouse assessed as effect on serum cholesterol level at 40 mg/kg, ip; assay type: organism-based; conditions: in vivo
Mus musculus [30] = assay: Reduction in hepatic steatosis in HFD-induced C57BL/6J mouse model of NAFL assessed as reduction in serum cholesterol level at 20 to 40 mg/kg/day, ip administered from week 7 to week 12; assay type: functional, organism-based; conditions: dose 20-40 mg/kg/day, time 6.0 weeks
Mus musculus [31] = assay: Reduction in hepatic steatosis in HFD-induced C57BL/6J mouse model of NAFL assessed as reduction in number of lipid droplets in hepatocytes at 20 to 40 mg/kg/day, ip administered from week 7 to week 12 by H&E staining analysis; assay type: functional, organism-based; conditions: dose 20-40 mg/kg/day, time 6.0 weeks

In the case of `C[C@H]1CO[C@]2(C)Oc3cc(O)c4c(c3C[C@H]12)O[C@@]1(C)OC[C@H](C)[C@H]1C4`, the Activity [1] is reported as “Non-Toxic”, the Activity [2] is reported as “Non-Toxic” and the Activity (Mus musculus [3]) is reported as “Active”. The Activity (Mus musculus [4]) was “Active”, the Activity (Mus musculus [5]) was “Active” and the Activity (Mus musculus [6]) was “Active”. The Activity (Mus musculus [7]) was “Active”, the Activity [8] was “Non-Toxic” and the Activity [9] was “Non-Toxic”. The Activity (Mus musculus [10]) was “Active”, the Activity (Mus musculus [11]) was “Active” and the Activity (Mus musculus [12]) was “Active”. The Activity [13] was “Non-Toxic”, the Activity (Mus musculus [14]) was “Active” and the Activity (Mus musculus [15]) was “Active”. The Activity [16] was “Non-Toxic”, the Activity (Mus musculus [17]) was “Active” and the Activity (Mus musculus [18]) was “Dde”. The Activity (Mus musculus [19]) was “Active”, the Activity (Mus musculus [20]) was “Active” and the Activity (Mus musculus [21]) was “Active”. The Activity (Mus musculus [22]) was “Active”, the Activity (Mus musculus [23]) was “Active” and the Activity (Mus musculus [24]) was “Active”. For the same compound, the Activity (Mus musculus [25]) was “Active”, the Activity [26] was “Non-Toxic” and the Activity (Mus musculus [27]) was “Dde”. For the same compound, the Activity (Mus musculus [28]) was “Active”, the Activity [29] was “Non-Toxic” and the Activity (Mus musculus [30]) was “Active”. The Activity (Mus musculus [31]) was “Active”.
